This note sets out measurements from ChEMBL document CHEMBL1681670, “Synthesis and cytotoxicity of (-)-renieramycin G analogs” (Bioorg Med Chem Lett, 2011).

One test concerns HCT-8. The experiment in a line: Cytotoxicity against human HCT8 cells after 3 days by MTT assay. The class given is functional, cell-based. The note with it: HCT-8, 72 h. On the technique in general: Formazan colour is commonly taken as a measure of viable cells.
For a further test, the system named is HeLa. The experiment in a line: Cytotoxicity against human HeLa cells after 3 days by MTT assay. Type of test: functional, cell-based. To be noted: 72 h.
The subject of another test is BGC-823. The test can be described thus: Cytotoxicity against human BGC823 cells after 3 days by MTT assay. The class given is functional, cell-based. The note with it: BGC-823, 72 h.
For another test, the system named is A549. The experiment in a line: Cytotoxicity against human A549 cells after 3 days by MTT assay. The class given is functional, cell-based. The note with it: A549, 72 h.
Another test deals with MCF7. The experiment in a line: Cytotoxicity against human MCF7 cells after 3 days by MTT assay. Type of test: functional, cell-based. The note with it: MCF7, 72 h.
The next test relates to KETR3. The test can be described thus: Cytotoxicity against human Ketr3 cells after 3 days by MTT assay. The class given is functional, cell-based. To be noted: KETR3, 72 h.
In test [1] the test system is KB. The test can be described thus: Cytotoxicity against human KB cells after 3 days by MTT assay. Type of test: functional, cell-based. The note with it: 72 h.
Another test relates to A2780. The experiment in a line: Cytotoxicity against human A2780 cells after 3 days by MTT assay. The class given is functional, cell-based. To be noted: A2780, 72 h.
The test system of another test is Bel-7402. The experiment in a line: Cytotoxicity against human Bel7402 cells after 3 days by MTT assay. Type of test: functional, cell-based. To be noted: Bel-7402, 72 h.
Another test has as its system LoVo. The experiment in a line: Cytotoxicity against human LoVo cells. Type of test: functional.
Test [2] has as its system KB. The test can be described thus: Cytotoxicity against human KB cells. The class given is functional.

Converted amounts (≈) assume the structure as drawn.

The IC50 is the concentration needed to halve the response being measured. The low end stands for greater potency in that assay, the high end for weaker potency in that assay.

Regarding `COC1=C(C)C(=O)C2=C(C1=O)[C@@H]1[C@@H]3CC4=C(C(=O)C(OC)=C(C)C4=O)[C@H](COC(=O)c4cccs4)N3C(=O)[C@H](C2)N1C`, the IC50 in the test with HCT-8 came to 1.48 µM; in the test on HeLa, 0.47 µM; in the test with BGC-823, 0.52 µM; in the test with A549, 0.71 µM; in the test on MCF7, 1.86 µM; with KETR3, 1.67 µM. For the same compound, the IC50 was found to be 0.02 µM in the test on KB [1], 1.44 µM in the test with A2780 and 1.6 µM in the test on Bel-7402.
For `COC1=C(C)C(=O)C2=C(C1=O)[C@@H]1[C@@H]3CC4=C(C(=O)C(OC)=C(C)C4=O)[C@H](COC(=O)/C=C/c4ccc(OC)cc4)N3C(=O)[C@H](C2)N1C`, the half-maximal inhibitory concentration (IC50) amounted to 8.85 µM in the test with HCT-8; 2.81 µM in the test on HeLa; 3.84 µM in the test on BGC-823; 8.34 µM in the test on A549; 3.74 µM with MCF7; 3.12 µM with KETR3. The IC50 is 3.73 µM in the test with KB [1], 4.16 µM in the test with A2780 and 7.28 µM with Bel-7402.
For `COC1=C(C)C(=O)C2=C(C1=O)[C@@H]1[C@@H]3CC4=C(C(=O)C(OC)=C(C)C4=O)[C@H](COC(=O)/C=C/c4ccc(OC)c(OC)c4OC)N3C(=O)[C@H](C2)N1C`, the IC50 in the test with HCT-8 was 12.4 µM; with HeLa, 5.1 µM; with BGC-823, 9.34 µM; with A549, 10.6 µM; with MCF7, 10.6 µM; in the test with KETR3, 9.29 µM. Besides, the results for the IC50 with KB [1], in the test with A2780 and in the test on Bel-7402 were 8.22 µM, 16.8 µM and 14 µM, respectively.
`C/C=C/C(=O)OC[C@H]1C2=C(C[C@H]3[C@H]4C5=C(C[C@@H](C(=O)N13)N4C)C(=O)C(C)=C(OC)C5=O)C(=O)C(C)=C(OC)C2=O`: the IC50 in the test on HCT-8 was 24.7 µM; in the test on HeLa it was 12.7 µM; in the test on BGC-823, 10.7 µM; in the test on A549, 7.42 µM; with MCF7 it was 23.8 µM; in the test on KETR3, 17.2 µM. The IC50 amounted to 5.28 µM in the test with KB [1], 25.3 µM in the test with A2780 and 23.9 µM in the test with Bel-7402.
For the compound `COC1=C(C)C(=O)C2=C(C1=O)[C@@H]1[C@@H]3CC4=C(C(=O)C(OC)=C(C)C4=O)[C@H](COC(=O)c4ccccc4)N3C(=O)[C@H](C2)N1C`, the IC50 in the test on HCT-8 worked out at 6.06 µM; in the test with HeLa it was 3.1 µM; in the test with BGC-823, 8.35 µM; with A549 it was 3.88 µM; with MCF7, 4.94 µM; with KETR3, 8.82 µM. Also, the IC50 with KB [1] is 2.83 µM; in the test on A2780, 3.07 µM; in the test with Bel-7402 it was 3.78 µM.
In the case of `COC1=C(C)C(=O)C2=C(C1=O)[C@@H]1[C@@H]3CC4=C(C(=O)C(OC)=C(C)C4=O)[C@H](COC(=O)/C=C/c4cccnc4)N3C(=O)[C@H](C2)N1C`, the IC50 is 2.05 µM in the test on HCT-8; 1.18 µM in the test on HeLa; 1.26 µM in the test with BGC-823; 2.05 µM in the test on A549; 2.23 µM in the test on MCF7; 1.43 µM with KETR3. Moreover, the IC50 in the test with KB [1] amounted to 0.39 µM; with A2780, 2.24 µM; in the test with Bel-7402, 2.3 µM.
Regarding `COC1=C(C)C(=O)C2=C(C1=O)[C@@H]1[C@@H]3CC4=C(C(=O)C(OC)=C(C)C4=O)[C@H](COC(=O)c4cccnc4)N3C(=O)[C@H](C2)N1C`, the IC50 was 19.4 µM in the test on HCT-8; 3.39 µM with HeLa; 3.38 µM in the test with BGC-823; 5.94 µM with A549; 17.4 µM in the test on MCF7; 4.62 µM in the test with KETR3. Besides, the IC50 in the test on KB [1] turned out to be 3.16 µM; in the test on A2780 it was 12.2 µM; in the test on Bel-7402, 6.47 µM.
For `COC1=C(C)C(=O)C2=C(C1=O)[C@@H]1[C@@H]3CC4=C(C(=O)C(OC)=C(C)C4=O)[C@H](COC(=O)/C=C/c4ccc(F)cc4)N3C(=O)[C@H](C2)N1C`, the IC50 with HCT-8 came out at 9.15 µM; in the test on HeLa it was 9.99 µM; with BGC-823, 7.43 µM; in the test with A549 it was 8.32 µM; in the test on MCF7 it was 9.67 µM; in the test with KETR3, 10.4 µM. The IC50 with KB [1] was 3.95 µM; with A2780, 15.8 µM; with Bel-7402, 14.2 µM.
Turning to `COC1=C(C)C(=O)C2=C(C1=O)[C@@H]1[C@@H]3CC4=C(C(=O)C(OC)=C(C)C4=O)[C@H](COC(=O)c4cc5ccccc5[nH]4)N3C(=O)[C@H](C2)N1C`, the IC50 came out at 7.85 µM with HCT-8; 2.7 µM in the test with HeLa; 2.6 µM in the test with BGC-823; 4.07 µM in the test on A549; 3.88 µM with MCF7; 4.42 µM in the test on KETR3. Moreover, the IC50 in the test on KB [1] was 3.36 µM; with A2780, 3.8 µM; in the test on Bel-7402, 4.59 µM.
In the case of `COC1=C(C)C(=O)C2=C(C1=O)[C@@H]1[C@@H]3CC4=C(C(=O)C(OC)=C(C)C4=O)[C@H](COC(=O)c4cccc5ccccc45)N3C(=O)[C@H](C2)N1C`, the IC50 with HCT-8 was found to be 28 µM; in the test with HeLa, 7.58 µM; in the test on BGC-823, 17.5 µM; with A549 it was 12.5 µM; in the test with MCF7, 14.1 µM; in the test with KETR3, 13.8 µM. Besides, the half-inhibitory concentration (IC50) with KB [1] came out at 5.41 µM; in the test with A2780 it was 15 µM; in the test on Bel-7402, 10.9 µM.
`COC1=C(C)C(=O)C2=C(C1=O)[C@@H]1[C@@H]3CC4=C(C(=O)C(OC)=C(C)C4=O)[C@H](COC(=O)/C=C/c4cccc5ccccc45)N3C(=O)[C@H](C2)N1C`: the IC50 turned out to be 9.31 µM in the test on HCT-8; 7.42 µM in the test on HeLa; 11.7 µM with BGC-823; 5 µM in the test on A549; 3.94 µM in the test with MCF7; 7.89 µM in the test on KETR3. In addition, the results for the IC50 with KB [1], with A2780 and with Bel-7402 were 8.67 µM, 9.09 µM and 9.81 µM, respectively.
For `C/C=C/C=C/C(=O)OC[C@H]1C2=C(C[C@H]3[C@H]4C5=C(C[C@@H](C(=O)N13)N4C)C(=O)C(C)=C(OC)C5=O)C(=O)C(C)=C(OC)C2=O`, the IC50 with HCT-8 stood at 3.47 µM; in the test on HeLa, 2.43 µM; in the test on BGC-823, 3.5 µM; in the test with A549, 3.2 µM; in the test on MCF7, 2.54 µM; in the test with KETR3 it was 3.86 µM. Further, the IC50 in the test on KB [1] stood at 2.03 µM; in the test on A2780 it was 2.44 µM; with Bel-7402 it was 2.13 µM.
For `COC1=C(C)C(=O)C2=C(C1=O)[C@@H]1[C@@H]3CC4=C(C(=O)C(OC)=C(C)C4=O)[C@H](COC(=O)/C=C/c4ccccc4)N3C(=O)[C@H](C2)N1C`, the IC50 in the test with HCT-8 came to 5 µM; in the test with HeLa, 4.39 µM; with BGC-823, 3.31 µM; in the test with A549, 5 µM; in the test with MCF7, 3.55 µM; in the test with KETR3, 7.83 µM. Besides, the IC50 was 2.96 µM with KB [1], 5 µM with A2780 and 2.3 µM in the test on Bel-7402.
Turning to `C/C=C(/C)C(=O)OC[C@H]1C2=C(C[C@H]3[C@H]4C5=C(C[C@@H](C(=O)N13)N4C)C(=O)C(C)=C(OC)C5=O)C(=O)C(C)=C(OC)C2=O` [(-)-RENIERAMYCIN G], the IC50 in the test with HCT-8 was 8.81 µM; with HeLa, 2.88 µM; with BGC-823 it was 3.37 µM; with A549, 5 µM; in the test with MCF7 it was 3.78 µM; in the test on KETR3, 3.42 µM. The IC50 with KB [1] is 3.3 µM; in the test on A2780, 4.17 µM; in the test with Bel-7402 it was 9.07 µM. Besides, the MIC is 1 µg/mL (≈ 1.77 µM) with LoVo and 0.5 µg/mL (≈ 0.886 µM) against KB [2].
In the case of `COC1=C(C)C(=O)C2=C(C1=O)[C@@H]1[C@@H]3CC4=C(C(=O)C(OC)=C(C)C4=O)[C@H](COC(C)=O)N3C(=O)[C@H](C2)N1C`, the IC50 with HCT-8 was 5.68 µM; in the test with HeLa, 2.68 µM; with BGC-823, 4.27 µM; in the test with A549, 4.49 µM; in the test on MCF7, 4.92 µM; with KETR3, 4.58 µM. The IC50 amounted to 2.25 µM in the test with KB [1], 3.26 µM in the test with A2780 and 3.96 µM in the test on Bel-7402.
With `COC1=C(C)C(=O)C2=C(C1=O)[C@@H]1[C@@H]3CC4=C(C(=O)C(OC)=C(C)C4=O)[C@H](COC(=O)c4cc(OC)c(OC)c(OC)c4)N3C(=O)[C@H](C2)N1C`, the IC50 was 2.73 µM in the test on HCT-8; 1.28 µM with HeLa; 1.18 µM in the test with BGC-823; 2.23 µM in the test with A549; 2.04 µM in the test with MCF7; 2.16 µM in the test with KETR3. Moreover, the IC50 in the test with KB [1] was 1.79 µM; in the test with A2780 it was 2.16 µM; with Bel-7402 it was 2.26 µM.
